Article PMC3990509, “Structures of Trypanosoma brucei Methionyl-tRNA Synthetase with Urea-Based Inhibitors Provide Guidance for Drug Design against Sleeping Sickness” (PLoS Neglected Tropical Diseases, 2014)
“Also recorded” adds a separate entry of the source.

Tested on: T. brucei infection
Assay: not given
Design: method as in PMID 22720744
Conditions: administered orally; cited from earlier work

SMILES | activity against the parasite in a mouse model
O=C(NCCCNCc1cc(Cl)cc(Cl)c1)Nc1ccccc1 [Chem 1356] | suppressive activity
O=C(NCCCNCc1cc(Cl)cc(Cl)c1)Nc1ccsc1 [Chem 1433] | moderate activity; also recorded: suppressive activity

Tested on: T. brucei brucei (bloodstream form strain 427)
Assay: T. brucei growth inhibition assay
Assay type: cell-based
Conditions: Trypanosoma brucei, read-out: EC50 (growth of T. brucei in cell culture)
Excerpt: T. brucei brucei (bloodstream form strain 427 from K. Stuart, Seattle BioMed, Seattle, WA) were used for EC50 measurements as previously described, [14].

SMILES | EC50 [µM]
CCOc1c(I)cc(Cl)cc1CNCCCNC(=O)Nc1ccsc1 [Chem 1469] | 9.55
O=C(NCCCNCc1cc(Cl)cc(Cl)c1)Nc1ccccc1 [Chem 1356] | 0.357
O=C(NCCCNCc1cc(Cl)cc(I)c1O)Nc1ccsc1 [Chem 1473] | 3.84
C=CCOc1c(CC=C)cc(Cl)cc1CNCCCNC(=O)Nc1ccsc1 [Chem 1475] | 1.16
C=CCc1cc(Cl)cc(CNCCCNC(=O)Nc2ccsc2)c1OCc1ccccc1 [Chem 1476] | 1.12
COc1cc(Cl)cc(CNCCCNC(=O)Nc2ccccc2)c1 [Chem 1415] | 0.267
C#Cc1cccc(CNCCCNC(=O)Nc2ccsc2)c1 [Chem 1478] | 1.06
COc1cc(Cl)cc(CNCCCNC(=O)Nc2ccsc2)c1 [Chem 1444] | 0.15
O=C(NCCCNCc1cc(Cl)cc(Cl)c1)Nc1ccsc1 [Chem 1433] | 0.19
O=C(NCCCNCc1cc(Cl)cc(Cl)c1)Nc1ccccc1O [Chem 1392] | 0.21
Cc1sc2ccccc2c1CNCCCNC(=O)Nc1ccsc1 [Chem 1540] | 9.41
C=CCc1cc(Cl)cc(CNCCCNC(=O)Nc2ccsc2)c1O [Chem 1472] | 5.26
O=C(NCCCNCc1cc(Cl)cc(Cl)c1)Nc1cccc(O)c1 [Chem 1387] | 0.17
O=C(NCCCNCc1cc(Cl)sc1Cl)Nc1ccsc1 [Chem 1509] | 2.79

Tested on: Staphylococcus aureus MetRS
Assay: not given
Design: method as in PMID 19015366
Conditions: physiological ATP 2500 µM versus 25 µM; cited from earlier work

SMILES | fold lower IC50 at 2500 µM ATP than at 25 µM ATP
C=C(F)c1sc(CNCCCNc2cc(O)c3ccccc3n2)c(C)c1Br [REP8839] | 30- to 50 fold

Molecular target: T1, T. brucei methionyl-tRNA synthetase (TbMetRS) (Trypanosoma brucei brucei, UniProt Q38C91)
T1 construct: hexa-histidine tag (3C protease site) (N, cleaved yes); made in house; host or cells: E. coli
T1 sequence (Q38C91 1-773): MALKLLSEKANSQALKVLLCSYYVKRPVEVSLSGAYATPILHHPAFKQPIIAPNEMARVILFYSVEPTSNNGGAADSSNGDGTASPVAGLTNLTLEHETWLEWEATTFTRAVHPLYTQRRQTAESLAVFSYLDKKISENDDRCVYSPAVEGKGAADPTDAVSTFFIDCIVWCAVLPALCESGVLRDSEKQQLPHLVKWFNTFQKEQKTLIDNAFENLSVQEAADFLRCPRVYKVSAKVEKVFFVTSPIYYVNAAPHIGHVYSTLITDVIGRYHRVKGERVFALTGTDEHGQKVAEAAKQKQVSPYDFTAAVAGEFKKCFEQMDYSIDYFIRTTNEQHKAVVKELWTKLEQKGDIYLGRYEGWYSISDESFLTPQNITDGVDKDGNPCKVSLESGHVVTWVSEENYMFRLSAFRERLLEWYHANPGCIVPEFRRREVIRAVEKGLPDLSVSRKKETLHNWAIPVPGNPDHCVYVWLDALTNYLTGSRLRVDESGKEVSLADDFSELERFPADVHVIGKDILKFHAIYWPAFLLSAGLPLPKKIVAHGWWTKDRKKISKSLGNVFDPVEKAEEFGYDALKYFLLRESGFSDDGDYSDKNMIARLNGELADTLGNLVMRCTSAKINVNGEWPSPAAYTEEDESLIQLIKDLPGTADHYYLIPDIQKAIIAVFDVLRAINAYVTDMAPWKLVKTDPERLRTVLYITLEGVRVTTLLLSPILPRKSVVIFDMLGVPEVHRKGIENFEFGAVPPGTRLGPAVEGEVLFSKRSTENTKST
Assay: not given
Design: method as in PMID 22720744
Conditions: previously reported ABI, used for comparison; read-out: IC50 of the ABI Chem 1312 against TbMetRS; cited from earlier work

SMILES | IC50 [µM]
Oc1cc(NCCCNCc2cc(Cl)cc(Cl)c2)nc2ccccc12 [Chem 1312] | 0.008

Tested on: MDR-1 MDCKII
Assay: not given
Conditions: cited from earlier work

SMILES | membrane permeability
O=C(NCCCNCc1cc(Cl)cc(Cl)c1)Nc1ccccc1 [Chem 1356] | excellent membrane permeability

Tested on: not given
Assay: not given
Design: method as in PMID 22720744
Conditions: cited from earlier work

SMILES | entry into the central nervous system | oral bioavailability
O=C(NCCCNCc1cc(Cl)cc(Cl)c1)Nc1ccccc1 [Chem 1356] | enter the central nervous system | reasonable oral bioavailability
O=C(NCCCNCc1cc(Cl)cc(Cl)c1)Nc1ccsc1 [Chem 1433] | enter the central nervous system | reasonable oral bioavailability

Molecular target: T2, TbMetRS (Trypanosoma brucei brucei, UniProt Q38C91)
T2 construct: hexa-histidine tag (3C protease site) (N, cleaved yes); made in house; host or cells: E. coli
T2 sequence (Q38C91 1-773): T1 sequence (Q38C91 1-773)
Assay: Thermal melt of TbMetRS with combinations of ligands (Chem 1433, ATP, AMPPCP, Mg2+)
Assay type: binding
Conditions: compared to TbMetRS only, no inhibitor
Experimental: Thermal melt experiments on TbMetRS in the presence of different combinations of ligands were performed to determine the nature of the interactions between Chem 1433 and ATP when they are bound to TbMetRS. A similar analysis has been used to establish synergism between an inhibitor of human ProRS, halofuginone, and ATP [25]. An increase in Tm of the TbMetRS•1433 complex upon adding ATP may be an indication of synergism between Chem 1433 and ATP in binding. […] Instead, the addition of ATP-Mg^2+ or AMPPCP-Mg^2+ to the complex of the TbMetRS•Chem 1433 complex result in increase of Tm by an average of 1.6°C (n = 4, P<0.02) and 1.2°C (n = 4, P<0.05), respectively, compared to the Tm of TbMetRS•Chem 1433 alone (Figure S4).
(§1) Supplementary file pntd.0002775.s004.pdf: Figure S4 Thermal melting curves of Tb MetRS in the presence of different ligands. TbMetRS (0.1 mg/ml) is incubated in the presence of different ligands as indicated. The incubation temperature of the samples is increased from 20°C to 90°C and the fluorescence signal from the reporter dye (Sypro Orange) monitored. Melting temperatures (Tm) are calculated from the curves as the temperature where the first derivative value is maximal. The average Tm value of TbMetRS in the presence of Chem 1433, ATP and Mg^2+ (purple dash) is 1.6°C higher than the Tm of TbMetRS in the presence of Chem 1433 only (n = 4, P<0.02). The average Tm of TbMetRS in the presence of Chem 1433, AMPPCP and Mg^2+ (black dot) is 1.2°C higher than the Tm of TbMetRS in the presence of Chem 1433 only (n = 4, P<0.05). Changes in Tm of TbMetRS in the presence of ATP and Mg^2+ or AMPPCP and Mg^2+ compared to TbMetRS only are insignificant (P>0.3 and 0.8 respectively). (PDF) Click here for additional data file.
A typical thermal melting curves of TbMetRS in the presence of different ligands.
as §1, with “TbMetRS” for “Supplementary file pntd.0002775.s004.pdf: Figure S4 Thermal melting curves of Tb MetRS in the presence of different ligands. TbMetRS”, “Mg2+” for “Mg^2+”, “P < 0.02).” for “P<0.02).”, “P < 0.05).” for “P<0.05).”, “(P > 0.3” for “(P>0.3”, “respectively).” for “respectively). (PDF) Click here for additional data file.”
(1 picture or pasted object on this page, not shown here)

SMILES | change in Tm of TbMetRS in the presence of the nucleotide and Mg2+
Nc1ncnc2c1ncn2[C@@H]1O[C@H](COP(=O)(O)OP(=O)(O)OP(=O)(O)O)[C@@H](O)[C@H]1O [ATP] | does not change significantly; also recorded: insignificant
Nc1ncnc2c1ncn2C1OC(COP(=O)(O)OP(=O)(O)CP(=O)(O)O)C(O)C1O (stereo not drawn) [AMPPCP, β,γ-methyleneadenosine 5′-triphosphate] | does not change significantly; also recorded: insignificant

Same assay, conditions: compared to Tm of TbMetRS•Chem 1433 alone; n = 4, P<0.02; TbMetRS 0.1 mg/ml

SMILES | increase of Tm on addition of ATP-Mg2+ to the TbMetRS•Chem 1433 complex [°C]
O=C(NCCCNCc1cc(Cl)cc(Cl)c1)Nc1ccsc1 [Chem 1433] | 1.6

Same assay, conditions: compared to Tm of TbMetRS•Chem 1433 alone; n = 4, P<0.05; TbMetRS 0.1 mg/ml

SMILES | increase of Tm on addition of AMPPCP-Mg2+ to the TbMetRS•Chem 1433 complex [°C]
O=C(NCCCNCc1cc(Cl)cc(Cl)c1)Nc1ccsc1 [Chem 1433] | 1.2

Molecular target: T1, T. brucei methionyl-tRNA synthetase (TbMetRS)
Assay: T. brucei methionyl-tRNA synthetase aminoacylation assay
Assay type: biochemical
Conditions: Chem 1433 (UBI) versus Chem 1312 (ABI)
Experimental: Compound IC50s were determined in the T. brucei methionyl-tRNA synthetase aminoacylation assay as previously described, [14] except 10 U/mL of pyrophosphatase was used per reaction.

SMILES | fold less favorable IC50 than Chem 1312 [fold]
O=C(NCCCNCc1cc(Cl)cc(Cl)c1)Nc1ccsc1 [Chem 1433] | ~3.5

Same assay, conditions: read-out: IC50 (aminoacylation activity of purified TbMetRS)

SMILES | IC50 [µM]
CCOc1c(I)cc(Cl)cc1CNCCCNC(=O)Nc1ccsc1 [Chem 1469] | > 10
O=C(NCCCNCc1cc(Cl)cc(Cl)c1)Nc1ccccc1 [Chem 1356] | 0.057
O=C(NCCCNCc1cc(Cl)cc(I)c1O)Nc1ccsc1 [Chem 1473] | 0.316
C=CCOc1c(CC=C)cc(Cl)cc1CNCCCNC(=O)Nc1ccsc1 [Chem 1475] | 1.23
C=CCc1cc(Cl)cc(CNCCCNC(=O)Nc2ccsc2)c1OCc1ccccc1 [Chem 1476] | 1.68
COc1cc(Cl)cc(CNCCCNC(=O)Nc2ccccc2)c1 [Chem 1415] | 0.045
C#Cc1cccc(CNCCCNC(=O)Nc2ccsc2)c1 [Chem 1478] | 0.096
COc1cc(Cl)cc(CNCCCNC(=O)Nc2ccsc2)c1 [Chem 1444] | 0.019
O=C(NCCCNCc1cc(Cl)cc(Cl)c1)Nc1ccsc1 [Chem 1433] | 0.028
Cc1sc2ccccc2c1CNCCCNC(=O)Nc1ccsc1 [Chem 1540] | 1.36
C=CCc1cc(Cl)cc(CNCCCNC(=O)Nc2ccsc2)c1O [Chem 1472] | 0.198
O=C(NCCCNCc1cc(Cl)sc1Cl)Nc1ccsc1 [Chem 1509] | 0.324
